A word on the pA2: it is a measure of antagonist potency on a negative log scale.

Results on 4 compounds are retold here after patent EP0133534A2, “Pyridyl compounds” (THE WELLCOME FOUNDATION LIMITED, priority 1983, dated 1985).

The subject of experiment [1] is histamine. Kind of experiment: In vitro antihistaminic activity: shift of histamine concentration-response curves in isolated guinea-pig ileum longitudinal muscle (Schild plot). Type of experiment: biochemical, guinea-pigs. Particulars: negative log of molar antagonist concentration shifting the control histamine concentration-response curve 2X to the right; tissue incubated one hour with test compound; 60 min. Here is the method: A.Invitro antihistaminic activity: The longitudinal muscle was isolated from the intact ileum of guinea-pigs (Harley, male 250-400 g) and placed in an organ bath under 300 mg tension. After one hour of equilibration, cumulative concentration-response curves (Van Rossum, J.M., Arch. Int. Pharmacodyn. Ther. 143 299-330,1963) to histamine were obtained. Following washing, the tissues were incubated for one hour with the test compound and then a second histamine concentration-response curve was run. Shifts to the right of the agonist concentration-response curve produced by the antagonists were used to construct Schild plots (Arunlakshana, O. and Schild, H.O., Br. J. Pharmacol: 14, 48-58, 1959). Regression of Log (dr-1) on Log/B/, where dr is an equiactive response in the presence and absence of antagonist and /B/ is the molar concentration of antagonist, allowed an estimate of pA2, i.e. the negative log of the. concentration of antagonist which shifts the control histamine concentration-response curve 2X to the right.
The antihistaminic activities of compounds of the present invention are detailed in table A below.

Experiment [2] relates to histamine. The conditions noted are these: metabolite of triprolidine in man; known from prior art; cited from earlier work.

On to `O=S(=O)(O)c1cccc(/C(=C/CN2CCCC2)c2ccccc2)c1` [Example 2, (E)-3-(1-phenyl-3-pyrrolidinoprop-1-enyl)-benzenesulphonic Acid], for which the pA2 in experiment [1] was determined as 7.1. On the same count and under the same terms, the same measure for `O=S(=O)(O)c1cccc(C(CCN2CCCC2)c2ccccc2)c1` (stereo not shown) [Example 3, 3-(1-phenyl-3-pyrrolidinopropyl) benzenesulphonic acid]: 7.3. `O=C(O)c1ccc(/C(=C\CN2CCCC2)c2ccccn2)cc1` [(E)-1-(4-carboxyphenyl)-1-(2-pyridyl)-3-pyrrolidinoprop-1-ene]: in experiment [2], the antihistamine activity result is on record as “little or no antihistamine activity”. Consider `Cc1ccc(/C(=C\CN2CCCC2)c2cccc(/C=C/c3nnn[nH]3)n2)cc1` [Example 1, 5-(E-6-[3-pyrrolidino-1-(4-tolyl)prop-1E-enyl]-2-pyridylvinyl)-1H-tetrazole], for which, in experiment [1], the pA2 is 8.7.
